The results in this text go back to BindingDB's records for doi:10.1021/jm020211+ (National Institute of Diabetes and Digestive and Kidney …, 2002).

The target in the experiment is T1, Adenosine receptor A3 (Homo sapiens, UniProt P0DMS8).
T1 sequence (P0DMS8 whole entry): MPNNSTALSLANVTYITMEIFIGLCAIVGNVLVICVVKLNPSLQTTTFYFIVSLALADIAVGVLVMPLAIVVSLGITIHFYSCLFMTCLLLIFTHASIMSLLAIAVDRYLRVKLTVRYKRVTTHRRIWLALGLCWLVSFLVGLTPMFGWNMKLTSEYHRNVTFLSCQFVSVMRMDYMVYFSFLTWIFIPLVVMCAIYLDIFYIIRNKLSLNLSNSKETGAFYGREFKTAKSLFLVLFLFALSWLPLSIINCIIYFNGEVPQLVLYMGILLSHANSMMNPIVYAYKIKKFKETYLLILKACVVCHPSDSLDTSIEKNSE
The experiment in a line: Effect on forskolin-stimulated cyclic AMP production in intact chinese hamster ovary (CHO) cell expressing the human Adenosine A3 receptor.

Take `Nc1nc(Cl)nc2c1ncn2C1C(O)C(O)C2(CO)CC12` (stereo unspecified) [4-(6-Amino-2-chloro-purin-9-yl)-1-hydroxymethyl-bicyclo[3.1.0]hexane-2,3-diol]: the EC50 (as a rule, the concentration that produces a half-maximal response) is 803 nM.
